Legend:
[1] = tested on: WT-PMM2 and mutants p.Asp65Tyr, p.Pro113Leu, p.Arg162Trp and p.Thr237Met; assay: Degradation time course (half-life) in prokaryotic transcription-translation-coupled system; type: biochemical, human; details: mutant proteins with compound at the tested concentrations
Method: In order to deepen in the effect of Compound A on the PMM2 stability, degradation time courses were analyzed on WT protein and folding mutants with residual activity, p.Asp65Tyr, p.Arg162Trp and p.Thr237Met in presence of the compound. Additionally, we included in this assay the dimeric mutant p.Pro113Leu in order to study the effect of the compound on a mutant of this type.
Dimeric PMM2 used for thermal stability analysis was produced by the RTS 100 E. coli HY Kit transcription-translation-coupled system (5 PRIME, Hilden, Germany), following the manufacturer's recommendations. To produce PMM2 proteins, the reaction mix provided by the kit, together with 500 ng of the corresponding expression vector and 1 µl of the compound for reaching a final concentration of 40µM or 80µM or 1µl of DMSO. Reactions were incubated for 30 min at 30°C. The reaction was then stopped by adding 1 µl of DNase (1 mg/mL) and 1 µl of RNase (1 mg/mL). It was then further incubated at 37°C and 1.5 µl aliquots removed at different times. The compound was therefore present during the folding process. Proteins were immunodetected by Western blot and relative amounts of protein were determined by densitometry for the half-life determination.

[2] = tested on: fibroblast lines from control lines or derived from patients; assay: Cell viability of the fibroblast cell lines; type: cell-based, human; details: 0.4µM, 2µM and 10µM
WT-PMM2 = biological target: T1, WT-PMM2 (Homo sapiens, UniProt O15305); assay: High-throughput differential scanning fluorimetry (DSF) screening, thermal denaturation; type: binding; details: 0.08 mg/mL of compound, 4% DMSO, vs DMSO control; read-out: protein Tm is increased (ΔTm)
T1 construct: His6 (N); made in house; host or cells: E. coli BL21 Star DE3
T1 sequence (O15305 1-246): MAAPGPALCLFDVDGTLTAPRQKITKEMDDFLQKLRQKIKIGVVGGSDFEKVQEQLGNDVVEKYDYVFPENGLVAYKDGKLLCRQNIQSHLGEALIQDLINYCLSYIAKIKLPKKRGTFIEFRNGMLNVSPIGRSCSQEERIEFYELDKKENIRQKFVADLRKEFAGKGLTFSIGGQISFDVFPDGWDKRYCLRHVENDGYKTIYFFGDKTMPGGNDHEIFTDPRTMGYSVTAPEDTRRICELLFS
Method: 10,000 molecular compounds from the MyriaScreen (Sigma-Aldrich) diversity collection were screened by determining the stabilization induced by the binding of different ligands (potential pharmacological chaperones) to the purified recombinant protein. The identification of ligands that stabilize WT-PMM2 thermally, was done by monitoring the thermal denaturation. The screening was performed by monitoring a shift in the fluorescence intensity at 610 nm using the LightCycler A480 (Roche).
PMM2 proteins were expressed in E.coli (BL21 Star™DE3 One Shot® Invitrogen). […]
Protein purification was performed using the ÄKTA Prime System (GE Healthcare, Little Chalfont, UK) at 4°C. […] The pure protein concentration was estimated by measuring the absorbance at 280 nm in a Nanodrop spectrophotometer (Thermo Scientific, Waltham, MA, USA) using the theoretical molar extinction coefficient estimated from the amino acid composition of HisPMM2 (23755 M^-1 cm^-1).
10,000 compounds of molecular weight ranging from 220 to 547 Da from the MyriaScreen diversity collection, dissolved in DMSO (Sigma Aldrich, St. Louis, MO, USA) to a final concentration of 2 mg/mL, were screened by DSF for identification of ligands that stabilize WT-PMM2 thermally. […] The experimental unfolding curves were then smoothed, normalized, and analyzed using in-house software. […]

ΔTm at 80 µg/mL (WT-PMM2): 1.1 °C
SMILES: O=C(Nc1cccc(Cl)c1)N(c1ccccn1)c1ccccn1 [Compound A, 3-(3-Chloro-phenyl)-1,1-di-pyridin-2-yl-urea]
half-life of the mutant proteins compared with WT-PMM2 [1]: longer half-life than that recorded for the WT-PMM2
Cell viability [2]: high

Source: patent EP3275863A1, “COMPOUNDS FOR TREATING CONGENITAL DISORDERS OF GLYCOSYLATION” (Universidad Autónoma de Madrid, priority 2016, dated 2018)
